Data reported in US20260184663A1, “INDENE COMPOUNDS, PHARMACEUTICAL COMPOSITIONS THEREOF, AND THEIR THERAPEUTIC APPLICATIONS” (NucMito Pharmaceuticals co. Ltd., priority 2022, published 2026).
Like-named read-outs stand apart in the source and are kept apart here.

Experiments:
Type in all cases: cell-based
SW480 (colon cancer) = test: Antiproliferative activity (CCK-8 cell viability), SW480; settings: Homo sapiens, 72 h; for inhibition at 3.3 µM: Compound concentration: 3.3 μM; for inhibition at 10 µM: Compound concentration: 10 μM; for inhibition at 30 µM: Compound concentration: 30 μM
Procedure, shortened: (§1)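 Cells were seeded at 2,000-5,000/well (HeLa in MEM, HepG2 and SW480 in DMEM, A549 in F-12K, all with 10% FBS) and treated with compound at 3.3, 10 or 30 μM for 72 h at 37° C. CCK-8 was added for 4 h, absorbance was read at 450 nm, and viability was expressed relative to DMSO-treated wells.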

[1] = tested on: A549 (lung adenocarcinoma); test: Antiproliferative activity (CCK-8 cell viability), A549; settings: Homo sapiens, 72 h; for inhibition at 3.3 µM: Compound concentration: 3.3 μM; for inhibition at 10 µM: Compound concentration: 10 μM; for inhibition at 30 µM: Compound concentration: 30 μM
Procedure, shortened: as §1

HepG2 (liver cancer) = test: Antiproliferative activity (CCK-8 cell viability), HepG2; settings: Homo sapiens, 72 h; for inhibition at 3.3 µM: Compound concentration: 3.3 μM; for inhibition at 10 µM: Compound concentration: 10 μM; for inhibition at 30 µM: Compound concentration: 30 μM
Procedure, shortened: as §1

HeLa (cervical cancer) = test: Antiproliferative activity (CCK-8 cell viability), HeLa; settings: Homo sapiens, 72 h; for inhibition at 3.3 µM: Compound concentration: 3.3 μM; for inhibition at 10 µM: Compound concentration: 10 μM; for inhibition at 30 µM: Compound concentration: 30 μM
Procedure, shortened: as §1

[2] = tested on: alpha-smooth muscle actin (α-SMA); test: Inhibition of TGF-β induced expression of alpha-smooth muscle actin (α-SMA) in CFSC cells (western blot); settings: compound at 10 μM, TGF-β (10 ng/mL), 24 hours, band intensity vs TGF-β only
Procedure, shortened: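 Values are percent reduction of α-SMA band intensity relative to cells given TGF-β alone, quantified by Western blot densitometry with β-actin probed. Compound was applied at 10 μM alongside 10 ng/mL TGF-β to serum-free CFSC cultures for 24 h at 37 °C.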

[3] = tested on: MDA-MB-231 (breast cancer); test: Antiproliferative activity (CCK-8 cell viability), MDA-MB-231; settings: Homo sapiens, 72 h; for inhibition at 3.3 µM: Compound concentration: 3.3 μM; for inhibition at 10 µM: Compound concentration: 10 μM; for inhibition at 30 µM: Compound concentration: 30 μM
Procedure, shortened: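 In this CCK-8 viability assay, MDA-MB-231 cells maintained in Dulbecco's modified Eagle's medium containing 10% fetal bovine serum were placed in 96-well plates (2,000-5,000 cells/well) and treated with compound for 72 h at 37° C. A 4 h incubation with 10 μL CCK-8 followed, plates were read at 450 nm, and viability was expressed against DMSO vehicle wells across replicates.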

[4] = tested on: A431 (epidermoid carcinoma); test: Antiproliferative activity (CCK-8 cell viability), A431; settings: Homo sapiens, 72 h; for inhibition at 3.3 µM: A-431, Compound concentration: 3.3 μM; for inhibition at 10 µM: A-431, Compound concentration: 10 μM; for inhibition at 30 µM: A-431, Compound concentration: 30 μM
Procedure, shortened: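 Cell viability of compound-treated A431 cells was measured with a Cell Counting Kit-8. Each well received 10 μL of CCK-8 after 72 h of compound exposure, followed by 4 h incubation at 37° C. and a 450 nm plate-reader measurement. Percent viability was calculated relative to DMSO controls across replicates.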

[5] = tested on: B16F10 (malignant melanoma); test: Antiproliferative activity (CCK-8 cell viability), B16F10; settings: Mus musculus, 72 h; for inhibition at 3.3 µM: B16-F10, Compound concentration: 3.3 μM; for inhibition at 10 µM: B16-F10, Compound concentration: 10 μM; for inhibition at 30 µM: B16-F10, Compound concentration: 30 μM
Procedure, shortened: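 Attached B16F10 cells in 96-well plates were incubated with compound at 37° C for 72 h, followed by 10 μL CCK-8 reagent per well and a further 4 h incubation. A multi-well plate reader measured absorbance at 450 nm. Percent viability across replicates was calculated against DMSO vehicle-treated cells.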

[6] = read-out: Antiproliferative activity in cancerous cells, SW480 (inhibition of cell growth)
[7] = read-out: Antiproliferative activity in cancerous cells, A549 (inhibition of cell growth)
[8] = read-out: Antiproliferative activity in cancerous cells, HepG2 (inhibition of cell growth)
[9] = read-out: Antiproliferative activity in cancerous cells, HELA (inhibition of cell growth)
[10] = read-out: Antiproliferative activity in cancerous cells, MDA-MB-231 (inhibition of cell growth)
[11] = read-out: Antiproliferative activity in cancerous cells, A431 (inhibition of cell growth)
[12] = read-out: Antiproliferative activity in cancerous cells, B16F10 (inhibition of cell growth)
[13] = read-out: Antiproliferative activity in cancerous cells, SW480
[14] = read-out: Antiproliferative activity in cancerous cells, HELA

Row | SMILES | inhibition at 3.3 µM (SW480 (colon cancer); [6]) [%] | inhibition at 10 µM (SW480 (colon cancer); [6]) [%] | inhibition at 3.3 µM [1, 7] [%] | inhibition at 10 µM [1, 7] [%] | inhibition at 3.3 µM (HepG2 (liver cancer); [8]) [%] | inhibition at 10 µM (HepG2 (liver cancer); [8]) [%] | inhibition at 3.3 µM (HeLa (cervical cancer); [9]) [%] | inhibition at 10 µM (HeLa (cervical cancer); [9]) [%] | inhibition at 10 µM [2] [%] | inhibition at 3.3 µM [3, 10] [%] | inhibition at 10 µM [3, 10] [%] | inhibition at 3.3 µM [4, 11] [%] | inhibition at 10 µM [4, 11] [%] | inhibition at 3.3 µM [5, 12] [%] | inhibition at 10 µM [5, 12] [%] | also measured
1 | CC(C)c1ccc(/C=C2/C(Cc3ccc(Oc4ccc(F)cc4)cc3)=C(CC(=O)O)c3cc(F)ccc32)cc1 [A103, (Z)-2-(5-Fluoro-2-(4-(4-fluorophenoxy)benzyl)-1-(4-isopropylbenzylidene)-1H-inden-3-yl)acetic acid] | ≥ 50 | ≥ 50 | ≥ 50 | ≥ 50 | ≥ 50 | ≥ 50 | ≥ 50 | ≥ 50 | > 80 | ≥ 50 | ≥ 50 | ≥ 50 | ≥ 50 | ≥ 50 | ≥ 50 | 
2 | CC1=C(CC(=O)O)c2c(F)cc(F)cc2/C1=C\c1ccc(C(C)C)cc1 [D8, (Z)-2-(4,6-Difluoro-1-(4-isopropylbenzylidene)-2-methyl-1H-inden-3-yl)acetic acid] | < 30 | < 30 | < 30 | 30 to 50 | < 30 | < 30 | ≥ 50 | ≥ 50 | 50 to 80 | 30 to 50 | ≥ 50 | < 30 | < 30 | < 30 | ≥ 50 | inhibition at 30 µM (SW480 (colon cancer); [6]): ≥ 50%; inhibition at 30 µM [1, 7]: ≥ 50%; inhibition at 30 µM (HepG2 (liver cancer); [8]): ≥ 50%; inhibition at 30 µM (HeLa (cervical cancer); [9]): ≥ 50%; inhibition at 30 µM [3, 10]: ≥ 50%; inhibition at 30 µM [4, 11]: ≥ 50%; inhibition at 30 µM [5, 12]: ≥ 50%
3 | CC1=C(CC(=O)O)c2cc(C)ccc2/C1=C\c1ccc(Oc2ccc(F)cc2)cc1 [C4, (Z)-2-(1-(4-(4-Fluorophenoxy)benzylidene)-2,5-dimethyl-1H-inden-3-yl)acetic acid] | < 30 | < 30 | < 30 | 30 to 50 | 30 to 50 | ≥ 50 | < 30 | ≥ 50 | > 80 | < 30 | 30 to 50 | < 30 | 30 to 50 | < 30 | < 30 | inhibition at 30 µM (SW480 (colon cancer); [13]): 30 to 50%
4 | O=C(O)CC1=C(Cc2ccc(Oc3ccc(F)cc3)cc2)/C(=C/c2cccc(COc3ccccc3)c2)c2ccc(F)cc21 [A101, (Z)-2-(5-Fluoro-2-(4-(4-fluorophenoxy)benzyl)-1-(3-(phenoxymethyl)-benzylidene)-1H-inden-3-yl)acetic acid] | ≥ 50 | ≥ 50 | ≥ 50 | ≥ 50 | ≥ 50 | ≥ 50 | ≥ 50 | ≥ 50 | > 80 | ≥ 50 | ≥ 50 | ≥ 50 | ≥ 50 | ≥ 50 | ≥ 50 | 
5 | CC1=C(CC(=O)O)c2cc(F)ccc2/C1=C\c1ccc(COc2ccc(C(F)(F)F)cc2)cc1 [B2, (Z)-2-(5-Fluoro-2-methyl-1-(4-((4-(trifluoromethyl)phenoxy)methyl)-benzylidene)-1H-inden-3-yl)acetic acid] | ≥ 50 | ≥ 50 | ≥ 50 | ≥ 50 | 30 to 50 | ≥ 50 | < 30 | < 30 | > 80 | 30 to 50 | ≥ 50 | 30 to 50 | ≥ 50 | ≥ 50 | ≥ 50 | inhibition at 30 µM (HeLa (cervical cancer); [14]): 30 to 50%
6 | COc1ccc(Oc2ccc(/C=C3/C(C)=C(CC(=O)O)c4cc(F)ccc43)cn2)cc1 [C35, (Z)-2-(5-Fluoro-1-((6-(4-methoxyphenoxy)pyridin-3-yl)methylene)-2-methyl-1H-inden-3-yl)acetic acid] | < 30 | 30 to 50 | ≥ 50 | ≥ 50 | < 30 | < 30 | < 30 | < 30 | < 30 | < 30 | < 30 | < 30 | < 30 | < 30 | < 30 | inhibition at 30 µM (SW480 (colon cancer); [13]): < 30%; inhibition at 30 µM ([1]; read-out: Antiproliferative activity in cancerous cells, A549): 30 to 50%; inhibition at 30 µM (HepG2 (liver cancer); read-out: Antiproliferative activity in cancerous cells, HepG2): < 30%; inhibition at 30 µM (HeLa (cervical cancer); [14]): < 30%; inhibition at 30 µM ([3]; read-out: Antiproliferative activity in cancerous cells, MDA-MB-231): 30 to 50%; inhibition at 30 µM ([4]; read-out: Antiproliferative activity in cancerous cells, A431): < 30%; inhibition at 30 µM ([5]; read-out: Antiproliferative activity in cancerous cells, B16F10): < 30%
7 | CC1=C(CC(=O)O)c2cc(C)ccc2/C1=C\c1cccc(Oc2ccccc2)c1 [C17, (Z)-2-(2,5-Dimethyl-1-(3-phenoxybenzylidene)-1H-inden-3-yl)acetic acid] | < 30 | < 30 | < 30 | ≥ 50 | 30 to 50 | ≥ 50 | < 30 | 30 to 50 | > 80 | 30 to 50 | ≥ 50 | 30 to 50 | ≥ 50 | < 30 | < 30 | 
